Assay results published in patent US20230391841A1, “MACROCYCLIC PEPTIDES” (Herantis Pharma OYJ, priority 2019, published 2023).
Bridge positions count the residues as written; N and C are the ends. Peptide text beside a SMILES is read from it.

Assay: Brain microdialysis (striatal interstitial fluid) after intravenous bolus
Format: in vivo, male Sprague-Dawley rats
Conditions: single 10 mg/kg intravenous bolus, microdialysis 4 hours
Procedure: Microdialysis probes were inserted to the ventral striatum of rats through implanted guide […] cannulas and perfused by aCSF. Compound 14 was administered as a single 10 mg/kg intravenous bolus injection and microdialysis samples were collected in 20-min interval for 4 hours. The brain interstitial fluid (ISF) concentrations of the compound were determined by LC-MS/MS and normalized to the recovery-% of the microdialysis membrane (determined by in vitro experiments).
Brain microdialysis study was carried out on the separate group of awake animals treated intravenously with compound 14. One week before the microdialysis experiment Sprague- Dawley rats were implanted with a guide cannula in the striatum at the following coordinates: AP +0.6 mm; L −3.0 mm; V −2.8 mm, providing the final V −6.8 mm for the tip of the microdialysis probe. On the day of the experiment a microdialysis probe (Eicom A-I: 0.22 mm O.D., 4 mm membrane length with cut-off 50 kDa) were inserted into the guide cannula and perfused at a constant flow-rate of 0.1 μL/min with artificial cerebrospinal fluid (aCSF) solution. […] The brain intrastitial fluid concentrations of the compound were analysed by UHPLC-MS/MS. […] Determined recovery percentage (29.3%) was used for correction of the data obtained in microdialysis study.

## C[C@@H]1NC(=O)[C@@H]2CSSC[C@H](NC(=O)[C@H]([C@@H](C)O)NC(=O)[C@H](CCC(=O)O)NC(=O)CNC(=O)[C@H](Cc3c[nH]c4ccccc34)NC(=O)[C@H](CO)NC(=O)[C@H](CCCCN)NC(=O)[C@H](CCC(=O)O)NC1=O)C(=O)N[C@@H](CCCCN)C(=O)NCC(=O)N2 [Compound 14, WGETCKGCAEKS] (cyclo(AEKSWGETCKGC); disulfide 9-12)
  penetration to the brain parenchyma (brain ISF, striatum): penetration
